According to EP0041644B1 (priority 1980, dated 1981):

What was measured:
L1210 Leukemia [1] = assay: L1210 Leukemia - Test 2; assay type: in vivo, mice
L1210 Leukemia [2] = assay: L1210 Leukemia - Test 3 (vehicle comparison); assay type: in vivo, mice; conditions: for Effect MST % T/C / MST Days: Day 1 only
B16 Melanoma [3] = assay: B16 Melanoma - Test 2 (ip tumor brei); assay type: in vivo, mice; conditions: QD +9
B16 Melanoma [4] = assay: B16 Melanoma - Test 3 (sc trocar fragments); assay type: in vivo, mice
Lewis Lung Carcinoma = Lewis Lung Carcinoma - Test 1 (ip, delayed therapy); assay type: in vivo, mice
L-1210 Leukemia = L-1210 Leukemia (Table IX); assay type: in vivo, mice
Method: The sodium and ammonium salts of the present invention were tested against transplantable mouse tumors as indicated below.

## [NH2][Pt]1([NH2])[O]C(=O)C([O-])C(=O)[O]1.[Na+] [Example 3, 2-Hydroxymalonato diammine platinum (II), sodium salt]
L1210 Leukemia [1]; 4 mg/kg/inj ip, qd 1→9
  Effect MST % T/C: 100 % T/C
  MST Days: 7.0 days
L1210 Leukemia [1]; 8 mg/kg/inj ip, qd 1→9
  Effect MST % T/C: 114 % T/C
  MST Days: 8.0 days
L1210 Leukemia [1]; 16 mg/kg/inj ip, qd 1→9
  Effect MST % T/C: 157 % T/C
  MST Days: 11.0 days
L1210 Leukemia [1]; 20 mg/kg/inj iv, d.1, 5&9
  Effect MST % T/C: 100 % T/C
  MST Days: 7.0 days
L1210 Leukemia [1]; 24 mg/kg/inj ip, qd 1→9
  Effect MST % T/C: 207 % T/C
  MST Days: 14.5 days
L1210 Leukemia [1]; 40 mg/kg/inj ip, d.1
  Effect MST % T/C: 114 % T/C
  MST Days: 8.0 days
L1210 Leukemia [1]; 40 mg/kg/inj iv, d.1
  Effect MST % T/C: 100 % T/C
  MST Days: 7.0 days
L1210 Leukemia [1]; 40 mg/kg/inj iv, d.1, 5&9
  Effect MST % T/C: 107 % T/C
  MST Days: 7.5 days
L1210 Leukemia [1]; 60 mg/kg/inj ip, d.1
  Effect MST % T/C: 121 % T/C
  MST Days: 8.5 days
L1210 Leukemia [1]; 60 mg/kg/inj iv, d.1
  Effect MST % T/C: 100 % T/C
  MST Days: 7.0 days
L1210 Leukemia [1]; 60 mg/kg/inj iv, d.1, 5&9
  Effect MST % T/C: 143 % T/C
  MST Days: 10.0 days
L1210 Leukemia [1]; 80 mg/kg/inj iv, d.1, 5&9
  Effect MST % T/C: 100 % T/C
  MST Days: 7.0 days
L1210 Leukemia [1]; 90 mg/kg/inj ip, d.1
  Effect MST % T/C: 143 % T/C
  MST Days: 10.0 days
L1210 Leukemia [1]; 90 mg/kg/inj iv, d.1
  Effect MST % T/C: 107 % T/C
  MST Days: 7.5 days
L1210 Leukemia [1]; 120 mg/kg/inj ip, d.1
  Effect MST % T/C: 136 % T/C
  MST Days: 9.5 days
L1210 Leukemia [1]; 120 mg/kg/inj iv, d.1
  Effect MST % T/C: 100 % T/C
  MST Days: 7.0 days
L1210 Leukemia [1]; iv, multi-dose regimen
  maximum T/C: 143%
L1210 Leukemia [1]; multi-dose therapy ip (qd 1→9)
  maximum T/C: 207-214%
L1210 Leukemia [1]; single ip doses, ip L1210
  maximum T/C: 143%
L1210 Leukemia [2]; 10 mg/kg ip, vehicle H2O
  Effect MST % T/C: 114 % T/C
  MST Days: 8.0 days
L1210 Leukemia [2]; 10 mg/kg ip, vehicle Saline
  Effect MST % T/C: 100 % T/C
  MST Days: 7.0 days
L1210 Leukemia [2]; 20 mg/kg ip, vehicle H2O
  Effect MST % T/C: 143 % T/C
  MST Days: 10.0 days
L1210 Leukemia [2]; 20 mg/kg ip, vehicle Saline
  Effect MST % T/C: 100 % T/C
  MST Days: 7.0 days
L1210 Leukemia [2]; 40 mg/kg ip, vehicle H2O
  Effect MST % T/C: 129 % T/C
  MST Days: 9.0 days
L1210 Leukemia [2]; 40 mg/kg ip, vehicle Saline
  Effect MST % T/C: 114 % T/C
  MST Days: 8.0 days
L1210 Leukemia [2]; 60 mg/kg ip, vehicle H2O
  Effect MST % T/C: 143 % T/C
  MST Days: 10.0 days
L1210 Leukemia [2]; 60 mg/kg ip, vehicle Saline
  Effect MST % T/C: 114 % T/C
  MST Days: 8.0 days
L1210 Leukemia [2]; 80 mg/kg ip, vehicle H2O
  Effect MST % T/C: 143 % T/C
  MST Days: 10.0 days
L1210 Leukemia [2]; 80 mg/kg ip, vehicle Saline
  Effect MST % T/C: 143 % T/C
  MST Days: 10.0 days
L1210 Leukemia [2]; 100 mg/kg ip, vehicle H2O
  Effect MST % T/C: 143 % T/C
  MST Days: 10.0 days
L1210 Leukemia [2]; 100 mg/kg ip, vehicle Saline
  Effect MST % T/C: 129 % T/C
  MST Days: 9.0 days
L1210 Leukemia [2]; single dose ip, saline and water as vehicles
  Maximum increase in median lifespan (T/C): 143%
B16 Melanoma [3]; 2 mg/kg/day ip
  Average Weight Change: -1.5 g
  Effect MST % T/C: 160 % T/C
  MST Days: 33.0 days
B16 Melanoma [3]; 4 mg/kg/day ip
  Average Weight Change: -2.8 g
  Effect MST % T/C: 168 % T/C
  MST Days: 34.5 days
B16 Melanoma [3]; 8 mg/kg/day ip
  Average Weight Change: -3.2 g
  Effect MST % T/C: 163 % T/C
B16 Melanoma [3]; 16 mg/kg/day ip
  Average Weight Change: -2.9 g
  Effect MST % T/C: 185 % T/C
  MST Days: 38.0 days
B16 Melanoma [3]; Day 10, 8 mg/kg/day ip
  Survivors Day 10 (60): 9/10
B16 Melanoma [3]; Day 60 (figure in parentheses), 16 mg/kg/day ip
  Survivors Day 10 (60): 1
B16 Melanoma [4]; 8 mg/kg/inj ip, qd 1→9
  Effect MST %TC: 102 %TC
  MST Days: 31.0 days
B16 Melanoma [4]; 12 mg/kg/inj ip, qd 1→9
  Effect MST %TC: 92 %TC
  MST Days: 28.0 days
B16 Melanoma [4]; 16 mg/kg/inj ip, qd 1→9
  Effect MST %TC: 125 %TC
  MST Days: 38.0 days
B16 Melanoma [4]; 20 mg/kg/inj iv, d.1, 5&9
  Effect MST %TC: 93 %TC
  MST Days: 28.5 days
B16 Melanoma [4]; 24 mg/kg/inj ip, qd 1→9
  Effect MST %TC: TOX
  MST Days: TOX
B16 Melanoma [4]; 40 mg/kg/inj iv, d.1, 5&9
  Effect MST %TC: 108 %TC
  MST Days: 33.0 days
B16 Melanoma [4]; 60 mg/kg/inj iv, d.1, 5&9
  Effect MST %TC: 108 %TC
  MST Days: 33.0 days
B16 Melanoma [4]; 80 mg/kg/inj iv, d.1, 5&9
  Effect MST %TC: TOX
  MST Days: TOX
B16 Melanoma [4]; 100 mg/kg/inj iv, d.1, 5&9
  Effect MST %TC: TOX
  MST Days: TOX
B16 Melanoma [4]; given ip, sc-implanted B16 melanoma
  T/C: 125%
B16 Melanoma [4]; given iv, sc-implanted B16 melanoma
  maximum T/C: not active
Lewis Lung Carcinoma; 4 mg/kg/inj ip, qd 5→13
  Effect MST %TC: 120 %TC
  MST Days: 15.0 days
Lewis Lung Carcinoma; 8 mg/kg/inj ip, qd 5→13
  Effect MST %TC: 140 %TC
  MST Days: 17.5 days
Lewis Lung Carcinoma; 12 mg/kg/inj ip, qd 5→13
  Effect MST %TC: 148 %TC
  MST Days: 18.5 days
Lewis Lung Carcinoma; 16 mg/kg/inj ip, qd 5→13
  Effect MST %TC: 160 %TC
  MST Days: 20.0 days
Lewis Lung Carcinoma; 20 mg/kg/inj ip, d. 5,9&13
  Effect MST %TC: 124 %TC
  MST Days: 15.5 days
Lewis Lung Carcinoma; 20 mg/kg/inj iv, d. 5,9&13
  Effect MST %TC: 100 %TC
  MST Days: 12.5 days
Lewis Lung Carcinoma; 40 mg/kg/inj ip, d. 5,9&13
  Effect MST %TC: 148 %TC
  MST Days: 18.5 days
Lewis Lung Carcinoma; 40 mg/kg/inj iv, d. 5,9&13
  Effect MST %TC: 108 %TC
  MST Days: 13.5 days
Lewis Lung Carcinoma; 60 mg/kg/inj ip, d. 5,9&13
  Effect MST %TC: 196 %TC
  MST Days: 24.5 days
Lewis Lung Carcinoma; 60 mg/kg/inj iv, d. 5,9&13
  Effect MST %TC: 132 %TC
  MST Days: 16.5 days
Lewis Lung Carcinoma; 80 mg/kg/inj ip, d. 5,9&13
  Effect MST %TC: 268 %TC
  MST Days: 33.5 days
Lewis Lung Carcinoma; 80 mg/kg/inj iv, d. 5,9&13
  Effect MST %TC: 148 %TC
  MST Days: 18.5 days
Lewis Lung Carcinoma; given ip, at maximum T/C
  long-term survivors (day 48): 2 to 6
Lewis Lung Carcinoma; given ip, therapy from day 5
  maximum T/C: 268%
Lewis Lung Carcinoma; given iv, therapy from day 5
  T/C: 148%
water
  Solubility in H2O at 22-25°C: > 100 mg/mL

## O=C1[O][Pt]2([NH]CC3(CCCCC3)C[NH]2)[O]C(=O)C1[O-].[Na+] [Example 9, 2-Hydroxymalonato (1,1-diaminomethylcyclohexane)-platinum (II), sodium salt]
L-1210 Leukemia; 2 mg/kg/inj ip, qd 1→9
  Average Weight Change,g: -1.3 g
  Effect MST % T/C: 131 % T/C
  MST Days: 8.5 days
L-1210 Leukemia; 4 mg/kg/inj ip, qd 1→9
  Average Weight Change,g: -1.2 g
  Effect MST % T/C: 154 % T/C
  MST Days: 10.0 days
L-1210 Leukemia; 8 mg/kg/inj ip, qd 1→9
  Average Weight Change,g: -1.3 g
  Effect MST % T/C: 238 % T/C
  MST Days: 15.5 days
L-1210 Leukemia; 12 mg/kg/inj ip, Day 1
  Average Weight Change,g: -1.8 g
  Effect MST % T/C: 162 % T/C
  MST Days: 10.5 days
L-1210 Leukemia; 12 mg/kg/inj ip, qd 1→9
  Average Weight Change,g: -3.0 g
  Effect MST % T/C: 292 % T/C
  MST Days: 19.0 days
L-1210 Leukemia; 24 mg/kg/inj ip, Day 1
  Average Weight Change,g: -3.7 g
  Effect MST % T/C: 215 % T/C
  MST Days: 14.0 days
L-1210 Leukemia; 36 mg/kg/inj ip, Day 1
  Average Weight Change,g: -4.3 g
  Effect MST % T/C: 223 % T/C
  MST Days: 14.5 days
L-1210 Leukemia; 48 mg/kg/inj ip, Day 1
  Average Weight Change,g: -3.6 g
  Effect MST % T/C: 200 % T/C
  MST Days: 13.0 days
L-1210 Leukemia; qd 1→9 (cis-DDP 2.4, parent 8 and 12, sodium salt 12 mg/kg/injection)
  maximum T/C: 292%
L-1210 Leukemia; single ip injection at maximum tolerated dose (cis-DDP 8 mg/kg, the two others 36 mg/kg)
  maximum T/C: 223%
other
  Water-solubility at room temperature: ≥ 100 mg/mL
